Laboratory results from US8613914B2, “Peptidomimetic sulfamide compounds and antiviral uses thereof” (Novartis AG, priority 2009, dated 2013).
pIC50: −log10 of the molar value.

Legend:
[1] = test system: HCV; conditions: ribavirin alone, cited from earlier work
[2] = target: HCV NS3-4A serine protease (full-length NS3-4A protein) (Hepatitis C virus genotype 1a (isolate 1) (HCV), UniProt P26664); assay: HCV NS3-4A protease assay; format: biochemical, HCV genotype 1a; conditions: strain HCV-1, fluorogenic peptide substrate, read-out: Protease assay Ex. 12 IC50
Experimental: The inhibitory activity of certain compounds of Table A against HCV NS3-4A serine protease is determined in a homogenous assay using the full-length NS3-4A protein (genotype 1a, strain HCV-1) and a commercially available internally-quenched fluorogenic peptide substrate as described by Taliani, M., et al. 1996 Anal. Biochem. 240:60-67, which is incorporated by reference in its entirety.

Chain of HCV NS3-4A serine protease (full-length NS3-4A protein) (P26664 1027-1657): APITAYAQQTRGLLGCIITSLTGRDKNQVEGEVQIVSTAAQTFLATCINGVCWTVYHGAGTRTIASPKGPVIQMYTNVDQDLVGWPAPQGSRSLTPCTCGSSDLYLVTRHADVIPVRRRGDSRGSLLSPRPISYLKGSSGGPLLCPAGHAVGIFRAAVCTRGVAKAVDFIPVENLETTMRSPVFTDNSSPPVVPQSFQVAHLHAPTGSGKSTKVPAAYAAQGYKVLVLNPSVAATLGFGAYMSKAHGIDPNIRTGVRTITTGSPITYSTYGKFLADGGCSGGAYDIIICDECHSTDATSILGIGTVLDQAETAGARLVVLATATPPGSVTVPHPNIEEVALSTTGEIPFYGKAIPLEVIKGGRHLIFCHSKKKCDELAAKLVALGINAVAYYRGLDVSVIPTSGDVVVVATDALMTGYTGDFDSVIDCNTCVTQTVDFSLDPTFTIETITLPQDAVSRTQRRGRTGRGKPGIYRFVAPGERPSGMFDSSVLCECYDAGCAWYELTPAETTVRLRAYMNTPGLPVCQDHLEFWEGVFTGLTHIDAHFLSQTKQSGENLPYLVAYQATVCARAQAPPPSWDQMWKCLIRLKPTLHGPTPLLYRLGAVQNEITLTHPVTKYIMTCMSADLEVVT
Chain of HCV NS3-4A serine protease (full-length NS3-4A protein) (P26664 1658-1711 partner): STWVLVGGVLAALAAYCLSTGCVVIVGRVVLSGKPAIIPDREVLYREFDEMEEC

Row | SMILES | serum levels of HCV-RNA ([1]; patients) | patients in whom serum amino transferase levels are reduced to normal [1] [%] | pIC50 [2]
1 | NC(=O)c1ncn([C@@H]2O[C@H](CO)[C@@H](O)[C@H]2O)n1 [Ribavirin, ribavirin] | does not lower serum levels of HCV-RNA | 40 | 
2 | C=C[C@@H]1C[C@]1(NC(=O)[C@@H]1C[C@@]2(CN1C(=O)[C@@H](NC(=O)[C@@H](NC(=O)[C@@H]1SCCN1CC)C1CCCCC1)C(C)(C)C)C(C)(C)C21CCC1)C(=O)NS(=O)(=O)N1CCCC1 [Compound 144, (5R,8S)-7-[(2S)-2-{[(2S)-2-cyclohexyl-2-({[(2S)-3-ethyl-1,3-thiazolidin-2-yl]carbonyl}amino)acetyl]amino}-3,3-dimethylbutanoyl]-10,10-dimethyl-N-{(1R,2S)-1-[(pyrrolidin-1-ylsulfonyl)carbamoyl]-2-vinylcyclopropyl}-7-azadispiro[3.0.4.1]decane-8-carboxamide] |  |  | 8.05
